Measured values reported in US20230278987A1, “Antimicrobial Compounds and Methods” (Curza Global, LLC, priority 2019, published 2023).
Where a name gives a salt, the structure may show the parent alone. Read-outs that look alike come from different tables or passages of the source.

What was measured:
A.baumannii (Ab) = assay: Broth microdilution MIC against A.baumannii (Ab); format: cell-based; details: for MIC: Acinetobacter baumannii
Experimental: (§1) A certified BSL-2 laboratory was used for testing. Compounds were evaluated using the broth microdilution minimum inhibitory concentration (MIC) and minimum bactericidal concentration (MBC) assays defined by Clinical and Laboratory Standards Institute (CLSI) in the M26-A guideline against S.aureus (Sa), E.coli (Ec), K.pneumoniae (Kp), A.baumannii (Ab), E.faecalis (Ef) and P.aeruginosa (Pa).
(§2) MICs were determined using the Clinical Laboratory and Standards Institute (CLSI) Broth Microdilution Method with slight modification. Clinical and Laboratory Standards Institute (2012). “Methods for dilution antimicrobial susceptibility tests for bacteria that grow aerobically; approved standard, 9th ed. M07-A9. Clinical and Laboratory Standards Institute, Wayne, PA.” Serial two-fold dilutions of compounds are prepared in sterile clear roundbottom 96-well plates.
(§3) To prepare microdilution trays, two-fold dilutions of antimicrobial agent are prepared in growth medium: Cation-Adjusted Mueller-Hinton Broth (CAMHB), or CAMHB supplemented with sodium bicarbonate (6.25 or 25 mM final concentration prepared from a 1.0 M stock solution) or CAMHB supplemented with heat inactivated human serum (Fisher Cat. # BP2657100) 0-50% by adding 200 µL of the highest concentration to be tested (64 µg/mL, for example) in row A, mixing and transferring 100 µL from row A to 100 µL growth medium in row B, then repeating the mixing and transferring through row H of the 96-well plate, discarding the excess 100 µL remaining. This slight modification to the CLSI protocol enables evaluation of MICs for 3 compounds per plate in triplicate, albeit with only 8 compound dilutions (CLSI protocol enables 2 compounds in triplicate with 10 dilutions). Bacterial suspensions are added to a final concentration of 5 × 10^4 CFU/well by adding 5 µL of a 1:10 dilution of a 0.5 McFarland suspension (1 × 10^8 CFU/mL) for each bacterium evaluated. Bacterial suspensions were prepared using the growth method described by CLSI. Well-isolated colonies (3-5 from an agar plate) were selected using a sterile loop and used to inoculate a tube containing 4 mL of CAMHB. The cultures are incubated at 35 ± 2° C. until it achieves or exceeds the turbidity of the 0.5 McFarland standard, determined by measuring A600nm (usually two to six hours). When growth exceeds a 0.5 McFarland standard, the turbidity is adjusted with broth to be equivalent to a 0.5 McFarland standard.

E.faecalis (Ef) = assay: Broth microdilution MIC against E.faecalis (Ef); format: cell-based; details: for MIC: Enterococcus faecalis
Experimental: as §1, §2, §3

[1] = target: Rabbit Reticulocyte Lysate (eukaryotic protein synthesis); assay: Rabbit Reticulocyte Lysate: inhibition of eukaryotic protein synthesis (luciferase); format: biochemical; details: 30° C. for 90 minutes, read-out: retic. IC50
Experimental: Inhibition of eukaryotic protein synthesis was determined using the Rabbit Reticulocyte Lysate System, Nuclease-Treated from Promega (catalog #L-4960) with slight modifications to the manufacturer’s protocol. Compounds were serial diluted in 0.5 mL microcentrifuge tubes by mixing and transferring 50 µL from the highest concentration to 50 µL of water, mixing and transferring 50 µL of this 2-fold dilution to 50 µL of water. This mixing and transferring was repeated so that there are a total of 8 tubes with serial dilutions of compound at 10× the desired screening concentration that are ultimately diluted to 1× by the addition of rabbit reticulocyte luciferase synthesis mixture. Serial dilutions of compounds were added (2.5 µL) to wells in a black round bottom 96-well plate. Water (2.5 µL) was used as a “no inhibitor” control in 4 wells/plate. No RNA control reaction mixture (2 µL; see below) was used as a control in 4 wells/plate for background luminescence. Rabbit reticulocyte luciferase synthesis mixture (22.5 µL; see below) was added to wells with compounds or water mixture and incubated at 30° C. for 90 minutes. Luciferase assay reagent (25 µL) was added with luminescence measured using a BioTek Synergy HTX plate reader. % Inhibition was determined relative to no inhibitor controls.
Rabbit reticulocyte luciferase synthesis mixture: • 1,000 µL rabbit reticulocyte lysate • 5.7 µL Luciferase Control RNA (1 µg/ µL) • 26 µL complete amino acid mixture • 395 µL water
No RNA Control • 70 µL rabbit reticulocyte lysate • 2 µL complete amino acid mixture • 28 µL water

S.aureus (Sa) = assay: Broth microdilution MIC against S.aureus (Sa); format: cell-based; details: for MIC: Staphylococcus aureus
Experimental: as §1, §2, §3

E.coli (Ec) = assay: Broth microdilution MIC against E.coli (Ec); format: cell-based; details: for MIC: Escherichia coli
Experimental: as §1, §2, §3

[2] = tested on: E.coli S30 extract (bacterial protein synthesis); assay: E.coli S30 extract: inhibition of bacterial protein synthesis (luciferase); format: biochemical; details: 37° C. for 1 hour
Experimental: E.coli S30 extract: Inhibition of bacterial protein synthesis was determined using the E.coli S30 Extract System for Circular DNA (Promega catalog #L-2010) and Luciferase Assay Reagent (Promega catalog #E1500) with slight modifications to a published protocol. Fyfe, C., Sutcliffe, J.A. and Grossman, T.H. (2012) “Development and characterization of a Pseudomonas aeruginosa in vitro coupled transcription-translation assay system for evaluation of translation inhibitors” J. Microbiol. Methods 90(3), 256-261.
Compounds were serial diluted in 0.5 mL microcentrifuge tubes by mixing and transferring 50 µL from the highest concentration to 50 µL of water, mixing and transferring 50 µL of this 2-fold dilution to 50 µL of water. This mixing and transferring was repeated so that there are a total of 8 tubes with serial dilutions of compound at 10× the desired screening concentration that are ultimately diluted to 1× by the addition of S30 luciferase synthesis mixture. Serial dilutions of compounds were added (2 µL) to wells in a black round bottom 96-well plate. Water (2 µL) was used as a “no inhibitor” control in 4 wells/plate. No DNA control reaction mixture (20 µL; see below) was used as a control in 4 wells/plate for background luminescence. S30 luciferase synthesis mixture (18 µL; see below) was added to wells with compounds or water mixture and incubated at 37° C. for 1 hour. Reactions were stopped by transferring to 4° C. refrigerator for 5 minutes then 25 µL of luciferase activity mix was added. Luminescence was measured using a BioTek Synergy HTX plate reader. % Inhibition was determined relative to no inhibitor controls.
S30 luciferase synthesis mixture: • 445 µL S30 extract, circular • 712 µL S30 Premix without amino acids • 4.45 µL pBESTluc™ DNA (1 µg/ µL) • 78 µL complete amino acid mixture • 267 µL water
No DNA control: • 20 µL S30 extract, circular • 32 µL S30 Premix without amino acids • 7 µL complete amino acid mixture • 21 µL water

P.aeruginosa (Pa) = assay: Broth microdilution MIC against P.aeruginosa (Pa); format: cell-based; details: for MIC: Pseudomonas aeruginosa
Experimental: as §1, §2, §3

[3] = CAMHB supplemented with sodium bicarbonate 6.25 mM, read-out: Ab +bicarb 6.25 (MIC)
[4] = CAMHB supplemented with sodium bicarbonate 6.25 mM, read-out: Ef +bicarb 6.25 (MIC)
[5] = CAMHB supplemented with sodium bicarbonate 6.25 mM, read-out: Sa + bicarb 6.25 (MIC)
[6] = CAMHB supplemented with sodium bicarbonate 6.25 mM, read-out: E. coli + bicarb 6.25 (MIC)
[7] = CAMHB supplemented with sodium bicarbonate 6.25 mM, read-out: Pa +bicarb 6.25 (MIC)
[8] = CAMHB supplemented with sodium bicarbonate 6.25 mM
[9] = CAMHB supplemented with sodium bicarbonate 6.25 mM, Hydrochloride Salt

With `CC(C)(N)C(=O)N1CCN(C(=O)Nc2ccn(-c3ccc4c(c3)CCC(N[C@H]3CC[C@H](N)C3)C4)c(=O)n2)CC1` (single isomer, unassigned) [Compound 27, Hydrochloride Salt] the MIC (A.baumannii (Ab); [3]) was greater than 32 µg/mL, the MIC (E.faecalis (Ef); [4]) was less than 8 µg/mL and the IC50 [1] was no less than 1000 nM. It also gave an MIC (S.aureus (Sa); [5]) of less than 8 µg/mL, an MIC (E.coli (Ec); [6]) of less than 8 µg/mL and an IC50 [2] of less than 500 nM. For the same molecule, the MIC (P.aeruginosa (Pa); [7]) was greater than 32 µg/mL.

With `CC(C)(N)C(=O)N1CCN(C(=O)Nc2ccn(-c3ccc4c(c3)CCC(N[C@H]3CC[C@H](N)C3)C4)c(=O)n2)CC1` (single isomer, unassigned) [Compound 28, Hydrochloride Salt] the “Ab +bicarb 6.25 (MIC)” value (A.baumannii (Ab); [8]) was “+ (An MIC value (µg/mL) that is 32 µg/mL or greater)”, the “Ef +bicarb 6.25 (MIC)” value (E.faecalis (Ef); [9]) was “++ (An MIC value (µg/mL) that is 8 µg/mL or greater and less than 32 µg/mL)” and the IC50 [1] was no less than 1000 nM. The “Sa + bicarb 6.25 (MIC)” value (S.aureus (Sa); [8]) was “+++ (An MIC value (µg/mL) that is less than 8 µg/mL)”, the “E. coli + bicarb 6.25 (MIC)” value (E.coli (Ec); [8]) was “+++ (An MIC value (µg/mL) that is less than 8 µg/mL)” and the IC50 [2] was less than 500 nM. The “Pa +bicarb 6.25 (MIC)” value (P.aeruginosa (Pa); [8]) was “+ (An MIC value (µg/mL) that is 32 µg/mL or greater)”.

With `CC(C)(N)C(=O)N1CCN(C(=O)Nc2ccn(-c3ccc4c(c3)CCC(N[C@H]3CC[C@@H](N)C3)C4)c(=O)n2)CC1` (single isomer, unassigned) [Compound 33, Hydrochloride Salt] the MIC (A.baumannii (Ab); [3]) was greater than 32 µg/mL, the MIC (E.faecalis (Ef); [4]) was greater than 32 µg/mL and the IC50 [1] was no less than 1000 nM. It also gave an MIC (S.aureus (Sa); [5]) of 8 to 32 µg/mL, an MIC (E.coli (Ec); [6]) of less than 8 µg/mL and an IC50 [2] of less than 500 nM. It also gave an MIC (P.aeruginosa (Pa); [7]) greater than 32 µg/mL.

In the case of `CC(C)(N)C(=O)N1CCN(C(=O)Nc2ccn(-c3ccc4c(c3)CCC(N[C@H]3CC[C@@H](N)C3)C4)c(=O)n2)CC1` (single isomer, unassigned) [Compound 34, Hydrochloride Salt], the “Ab +bicarb 6.25 (MIC)” value (A.baumannii (Ab); [8]) is reported as “+ (An MIC value (µg/mL) that is 32 µg/mL or greater)”, the “Ef +bicarb 6.25 (MIC)” value (E.faecalis (Ef); [8]) is reported as “+ (An MIC value (µg/mL) that is 32 µg/mL or greater)” and the IC50 [1] is reported as no less than 1000 nM. The “Sa + bicarb 6.25 (MIC)” value (S.aureus (Sa); [9]) was “+++ (An MIC value (µg/mL) that is less than 8 µg/mL)”, the “E. coli + bicarb 6.25 (MIC)” value (E.coli (Ec); [8]) was “+++ (An MIC value (µg/mL) that is less than 8 µg/mL)” and the IC50 [2] was less than 500 nM. For the same molecule, the “Pa +bicarb 6.25 (MIC)” value (P.aeruginosa (Pa); [8]) was “+ (An MIC value (µg/mL) that is 32 µg/mL or greater)”.

`CC(C)(N)C(=O)N1CCN(C(=O)Nc2ccn(-c3ccc4c(c3)CCC(N[C@H]3CC[C@H](N)C3)C4)c(=O)n2)CC1` (stereo in doubt) [Compound 10] showed an MIC (A.baumannii (Ab); CAMHB supplemented with sodium bicarbonate 25 mM, read-out: Ab +bicarb 25 (MIC)) greater than 32 µg/mL, an MIC (E.faecalis (Ef); CAMHB supplemented with sodium bicarbonate 25 mM, read-out: Ef +bicarb 25 (MIC)) of less than 8 µg/mL and an IC50 [1] of no less than 1000 nM. The MIC (S.aureus (Sa); CAMHB supplemented with sodium bicarbonate 25 mM, read-out: Sa + bicarb 25 (MIC)) was less than 8 µg/mL, the MIC (E.coli (Ec); CAMHB supplemented with sodium bicarbonate 25 mM, read-out: E.coli + bicarb 25 (MIC)) was less than 8 µg/mL and the IC50 [2] was less than 500 nM. The MIC (P.aeruginosa (Pa); CAMHB supplemented with sodium bicarbonate 25 mM, read-out: Pa +bicarb 25 (MIC)) was greater than 32 µg/mL.

Work on `CC(C)(N)C(=O)N1CCN(C(=O)Nc2ccn(-c3ccc4c(c3)CCC(N3C[C@@H]5[C@@H](N)[C@@H]5C3)C4)c(=O)n2)CC1` (stereo partly shown) [Compound 1] yielded an IC50 [1] of no less than 1000 nM and an IC50 [2] of no less than 1000 nM.

`CC(C)(N)C(=O)N1CCN(C(=O)Nc2ccn(-c3ccc4c(c3)CCC(N3CCC(N)CC3)C4)c(=O)n2)CC1` (stereo not shown) [Compound 2] showed an IC50 [1] of no less than 1000 nM, an MIC (E.coli (Ec); [6]) of less than 8 µg/mL and an IC50 [2] of less than 500 nM.
